Test results as given in patent publication US6777204B1, “Receptor protein and method for diagnosing inflammatory diseases by using the same” (Asahi Kasei Kabushiki Kaisha, priority 1998, dated 2004).

Tests used:
C5L2 protein = target: T1, C5L2 protein (Homo sapiens, UniProt Q9P296); assay: Ligand screening: binding of radio-labeled candidate compound to cell membrane fraction of 293 cells transformed with pcDNAC5L2 versus empty-vector control; conditions: final concentration of CGS21680 100 nM; 37° C. for 30 minutes; supernatant counted by liquid scintillation
T1 construct: Myc (C); His (C); expressed in transfected cells; host or cells: 293 cell line (ATCC CRL-1573), cell membrane fraction
Experimental: The transformants were incubated for 48 to 72 hours. The incubated cells were washed with PBS and, then, 1 ml/plate of EDTA-containing PBS (EDTA concentration: 0.01%) was added to the washed cells. Using Cell Scraper-L (catalog number: MS-93300) (manufactured and sold by Sumitomo Bakelite Co., Ltd., Japan), the cells were scraped off from the plate and washed twice with PBS. The washed cells were suspended in 0.5 ml of 25 mM HEPES solution (pH 7.4) containing Complete™ Protease Inhibitor Cocktail Set (manufactured and sold by Boehringer Mannheim Corporation, Germany), and the resultant cell suspension was transferred to a microtube. […]
The cell membrane fractions were prepared from the 293 cells (i.e., cells of 293 cell line) transformed with pcDNAC5L2 (i.e., C5L2 transformants) and the 293 cells transformed with pcDNA3.1/Myc-His(+)B vector (i.e., control) in substantially the same manner as in Example 5. […] Subsequently, the radioactivity of the prepared sample was measured by means of a scintillation counter (Beckman LS6000LL, manufactured and sold by Beckman Instruments, Inc., U.S.A.). The amount of the unbound candidate compound was determined from the measured radioactivity.

[1] = target: T2, C5L2 protein-expressing CHO cells (Homo sapiens, UniProt Q9P296); assay: Screening of a substance which antagonizes a ligand: chemotaxis assay of CHO cells transformed with C5L2 toward LPS-administered rat serum; assay type: cell-based; conditions: NECA final concentration 100 μM in upper and lower compartments; LPS-administered rat serum as ligand source
T2 construct: Myc (C); His (C); expressed in transfected cells; host or cells: CHO cells (ATCC CCL-61), Geneticin-selected
Experimental: A chemotaxis Assay was Conducted with respect to the CHO cells transformed with C5L2. […] The chemotaxis of the cells in the absence of the antagonist candidate substance against a ligand was compared with that in the presence of the antagonist candidate substance against a ligand.

T2 sequence (Q9P296 whole entry): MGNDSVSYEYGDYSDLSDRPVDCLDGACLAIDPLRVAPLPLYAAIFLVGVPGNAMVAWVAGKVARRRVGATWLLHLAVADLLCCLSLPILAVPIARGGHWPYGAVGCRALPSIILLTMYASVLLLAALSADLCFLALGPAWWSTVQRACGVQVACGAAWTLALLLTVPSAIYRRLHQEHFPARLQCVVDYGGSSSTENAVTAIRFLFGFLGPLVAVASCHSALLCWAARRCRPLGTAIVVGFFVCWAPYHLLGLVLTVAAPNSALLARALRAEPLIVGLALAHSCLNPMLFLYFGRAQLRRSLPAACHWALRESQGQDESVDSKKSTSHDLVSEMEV
T1 sequence (Q9P296 whole entry): as above

## CCNC(=O)[C@H]1O[C@@H](n2cnc3c(N)nc(NCCc4ccc(CCC(=O)O)cc4)nc32)[C@H](O)[C@@H]1O [CGS21680]
C5L2 protein
  radioactivity of unbound candidate compound, C5L2 transformants versus control cells: no difference in the radioactivity was observed

## CCNC(=O)[C@H]1O[C@@H](n2cnc3c(N)ncnc32)[C@H](O)[C@@H]1O [NECA, 5′-(N-ethylcarboxyamide)adenosine]
[1]
  chemotaxis of the cells in the presence versus absence of the antagonist candidate substance: no difference was observed
